We go through one molecule from PMC2680982, “The cAMP-Dependent Protein Kinase Inhibitor H-89 Attenuates the Bioluminescence Signal Produced by Renilla Luciferase” (PLoS ONE, 2009).

The IC50 is the point on the concentration scale where inhibition reaches its midpoint. The low end stands for inhibition by little substance, the high end for a need for much substance.

For this test, the target named is T1, RLuc8 (Renilla luciferase variant) (Renilla reniformis, UniProt P27652, A55T/C124A/S130A/K136R/A143M/M185V/M253L/S287L).
T1 construct: RLuc8 in pRSETB, purified on Ni-NTA from E. coli
T1 sequence (P27652 1-311 A55T/C124A/S130A/K136R/A143M/M185V/M253L/S287L): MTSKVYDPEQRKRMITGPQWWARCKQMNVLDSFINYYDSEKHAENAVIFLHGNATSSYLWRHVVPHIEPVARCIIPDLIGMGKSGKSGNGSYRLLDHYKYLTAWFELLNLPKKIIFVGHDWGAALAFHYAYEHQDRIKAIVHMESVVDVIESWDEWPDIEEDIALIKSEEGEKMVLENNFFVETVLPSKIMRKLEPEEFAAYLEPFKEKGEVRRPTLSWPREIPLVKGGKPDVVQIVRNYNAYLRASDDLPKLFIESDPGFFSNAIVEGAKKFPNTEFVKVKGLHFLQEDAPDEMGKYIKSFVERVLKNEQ
Briefly: bioluminescence inhibition of […] purified RLuc8 with coelenterazine-h titration. Format: biochemical.

In the case of `O=S(=O)(NCCNC/C=C/c1ccc(Br)cc1)c1cccc2cnccc12` [H-89, N-[2-(p-bromocinnamylamino)ethyl]-5-isoquinolinesulfonamide], the IC50 is 21 µM.
